Measurements: PubChem BioAssay AID1963964 (Molecular Pharmacology Branch, DTP, NCI, 2024)

System: 997726-040-R-J2-PDC tumor spheroids, viability
Test: Anticancer human tumor 997726-040-R-J2-PDC patient-derived squamous cell lung carcinoma cell line growth inhibition [PI3K]
Conditions: spheroids with HUVEC and MSC; for viability, T/C: stronger effect = lower value
How it was run: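 Complex 3D spheroids (cancer cells + endothelial HUVEC + mesenchymal stem cells); drug pairs of targeted agent x inavolisib/alpelisib/duvelisib/copanlisib; half-log series from ~Cmax, max 10 microM if Cmax unknown; endpoint viability.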

[1] = curve of first compound, second compound 0.00316 µM
[2] = curve of first compound, second compound 0.01 µM
[3] = curve of first compound, second compound 0.0316 µM
[4] = curve of first compound, second compound 0.1 µM
[5] = curve of first compound, second compound 0.316 µM
[6] = curve of first compound, second compound 1 µM
[7] = second compound 0.00316 µM, first compound 0.0316 µM
[8] = second compound 0.00316 µM, first compound 0.1 µM
[9] = second compound 0.00316 µM, first compound 0.316 µM
[10] = second compound 0.00316 µM, first compound 1 µM
[11] = second compound 0.00316 µM, first compound 3.16 µM
[12] = second compound 0.00316 µM, first compound 10 µM
[13] = second compound 0.01 µM, first compound 0.0316 µM
[14] = second compound 0.01 µM, first compound 0.1 µM
[15] = second compound 0.01 µM, first compound 0.316 µM
[16] = second compound 0.01 µM, first compound 1 µM
[17] = second compound 0.01 µM, first compound 3.16 µM
[18] = second compound 0.01 µM, first compound 10 µM
[19] = second compound 0.0316 µM, first compound 0.0316 µM
[20] = second compound 0.0316 µM, first compound 0.1 µM
[21] = second compound 0.0316 µM, first compound 0.316 µM
[22] = second compound 0.0316 µM, first compound 1 µM
[23] = second compound 0.0316 µM, first compound 3.16 µM
[24] = second compound 0.0316 µM, first compound 10 µM
[25] = second compound 0.1 µM, first compound 0.0316 µM
[26] = second compound 0.1 µM, first compound 0.1 µM
[27] = second compound 0.1 µM, first compound 0.316 µM
[28] = second compound 0.1 µM, first compound 1 µM
[29] = second compound 0.1 µM, first compound 3.16 µM
[30] = second compound 0.1 µM, first compound 10 µM
[31] = second compound 0.316 µM, first compound 0.0316 µM
[32] = second compound 0.316 µM, first compound 0.1 µM
[33] = second compound 0.316 µM, first compound 0.316 µM
[34] = second compound 0.316 µM, first compound 1 µM
[35] = second compound 0.316 µM, first compound 3.16 µM
[36] = second compound 0.316 µM, first compound 10 µM
[37] = second compound 1 µM, first compound 0.0316 µM
[38] = second compound 1 µM, first compound 0.1 µM
[39] = second compound 1 µM, first compound 0.316 µM
[40] = second compound 1 µM, first compound 1 µM
[41] = second compound 1 µM, first compound 3.16 µM
[42] = second compound 1 µM, first compound 10 µM
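Further: spheroids exposed to compounds for seven days before readout.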

SMILES: COc1c(OCCCN2CCOCC2)ccc2c3n(c(=NC(=O)c4cnc(N)nc4)nc12)CCN3
- viability, T/C (compound 0.00316 µM): 82.3% [middle of 8 runs]
- viability, T/C (compound 0.01 µM): 58.9% [middle of 8 runs]
- viability, T/C (compound 0.0316 µM): 36.3% [middle of 8 runs]
- viability, T/C (compound 0.1 µM): 22.1% [middle of 8 runs]
- viability, T/C (compound 0.316 µM): 4.98% [middle of 8 runs]
- viability, T/C (compound 1 µM): 1.19% [middle of 8 runs]
- IC50 (compound alone, run of 06/13/2023): 15.9 nM [middle of 8 runs]

SMILES: CC(Cn1ccc(-c2ccc(C#N)c(Cl)c2)n1)NC(=O)c1cc(C(C)O)[nH]n1 (stereo unspecified) + CC(Nc1ccc2c(c1)OCCn1cc(N3C(=O)OCC3C(F)F)nc1-2)C(N)=O
- IC50 [1]: > 10000 nM
- IC50 [2]: > 10000 nM
- IC50 [3]: > 10000 nM
- IC50 [4]: < 31.6 nM
- IC50 [5]: < 31.6 nM
- IC50 [6]: < 31.6 nM
- viability, T/C [7]: 85.8%
- viability, T/C [8]: 88.3%
- viability, T/C [9]: 89.4%
- viability, T/C [10]: 91.4%
- viability, T/C [11]: 97.3%
- viability, T/C [12]: 85.4%
- viability, T/C [13]: 78.3%
- viability, T/C [14]: 81%
- viability, T/C [15]: 80%
- viability, T/C [16]: 84.5%
- viability, T/C [17]: 84.1%
- viability, T/C [18]: 89.4%
- viability, T/C [19]: 61.1%
- viability, T/C [20]: 70.2%
- viability, T/C [21]: 67.3%
- viability, T/C [22]: 62.6%
- viability, T/C [23]: 63.8%
- viability, T/C [24]: 64.7%
- viability, T/C [25]: 48.5%
- viability, T/C [26]: 45.5%
- viability, T/C [27]: 54.1%
- viability, T/C [28]: 51.4%
- viability, T/C [29]: 47.3%
- viability, T/C [30]: 48.2%
- viability, T/C [31]: 39%
- viability, T/C [32]: 32.9%
- viability, T/C [33]: 32.8%
- viability, T/C [34]: 33.7%
- viability, T/C [35]: 35.8%
- viability, T/C [36]: 31.5%
- viability, T/C [37]: 31.1%
- viability, T/C [38]: 26.7%
- viability, T/C [39]: 26.6%
- viability, T/C [40]: 30.5%
- viability, T/C [41]: 28.6%
- viability, T/C [42]: 24.5%

SMILES: C=CC(=O)N1CCN(c2nc(=O)n(-c3c(C)ccnc3C(C)C)c3nc(-c4c(O)cccc4F)c(F)cc23)C(C)C1 (stereo unspecified) + COc1c(OCCCN2CCOCC2)ccc2c3n(c(=NC(=O)c4cnc(N)nc4)nc12)CCN3
- IC50 [1]: > 10000 nM
- IC50 [2]: > 10000 nM
- IC50 [3]: < 31.6 nM
- IC50 [4]: < 31.6 nM
- IC50 [5]: < 31.6 nM
- IC50 [6]: < 31.6 nM
- viability, T/C [7]: 71.2%
- viability, T/C [8]: 72.5%
- viability, T/C [9]: 85.4%
- viability, T/C [10]: 77.6%
- viability, T/C [11]: 92.2%
- viability, T/C [12]: 96.4%
- viability, T/C [13]: 53%
- viability, T/C [14]: 57.5%
- viability, T/C [15]: 51.2%
- viability, T/C [16]: 62.9%
- viability, T/C [17]: 63.1%
- viability, T/C [18]: 57.1%
- viability, T/C [19]: 33.9%
- viability, T/C [20]: 36%
- viability, T/C [21]: 34.4%
- viability, T/C [22]: 40.5%
- viability, T/C [23]: 43.2%
- viability, T/C [24]: 34.8%
- viability, T/C [25]: 28%
- viability, T/C [26]: 24.4%
- viability, T/C [27]: 25.1%
- viability, T/C [28]: 23.3%
- viability, T/C [29]: 22.9%
- viability, T/C [30]: 21.8%
- viability, T/C [31]: 6.57%
- viability, T/C [32]: 6.07%
- viability, T/C [33]: 5.29%
- viability, T/C [34]: 5.93%
- viability, T/C [35]: 4.93%
- viability, T/C [36]: 4.59%
- viability, T/C [37]: 2.71%
- viability, T/C [38]: 1.42%
- viability, T/C [39]: 1.53%
- viability, T/C [40]: 1.33%
- viability, T/C [41]: 1.27%
- viability, T/C [42]: 1.57%
